{
  "source": "paper PMC6261308",
  "about": "(Advanced functional materials, 2018)",
  "experiment": "Acute toxicity: hemograms and serum biochemistry",
  "type": "in vivo, Balb/c mice",
  "conditions": "2.5 mg kg^−1 of drug content three times a week",
  "data": [
    {"molecule": "COc1cccc2c1C(=O)c1c(O)c3c(c(O)c1C2=O)C[C@@](O)(/C(CO)=N/NC(=O)CCCCCN1C(=O)C=CC1=O)C[C@@H]3O[C@H]1C[C@H](N)[C@H](O)[C@H](C)O1", "note": "[aldox, aldoxorubicin]", "values": [
      {"measurement": "serum creatine kinase (CK) level", "value": "increased CK level"}
    ]}
  ]
}
